Experimental data from patent publication US5667809A, “Continuous fluorochemical microdispersions for the delivery of lipophilic pharmaceutical agents” (priority 1995, dated 1997).
Read-outs that look alike come from different tables or passages of the source.

Tests used:
[1] = cited from earlier work
[2] = intravenous, cited from earlier work
E. coli = assay: Antibacterial activity, E. coli titer in wells with human lung epithelial cells; format: cell-based; settings: saline
Experimental: The experimental procedure is followed:
a). Prepare a monolayer of normal human lung epithelial cells.
b). Add 60 μL of E. coli culture into the well with lung epithelial cells on the 96-well plate.
c). […] Incubate at 37° C. overnight.
d). Aspirate the cultured mixture and diluted with LB media (1:2).
e). Take 20 μL of diluted mixture and plate on an LB plate for an initial titration of E. coli. The E. coli plates were incubated at 37° C. overnight.
f). Various dilutions were made according to the initial titer of each mixture so as to determine the accurate titer in each well. A duplicated set of tests was conducted for each treatment.
g). The titer of E. coli was calculated by multiplying the number of colonies grown on each plate by a dilution factor for each well tested.

Clc1cccc(Cl)c1N=C1NCCN1 [^3 H-clonidine, clonidine]
Log Po/w ([1]; octanol/water): 1.4

CC(C)=CCN1CCC2(C)c3cc(O)ccc3CC1C2C (stereo not drawn) [pentazocin]
Octanol/water partition coefficient Po/w ([1]; in octanol/pH 7.4 isotonic phosphate buffer at 37° C. (footnote a on the Log value)): 150

CCCCC(CC)COC(=O)c1ccc(N(C)C)cc1 (stereo not drawn) [^14 C-padimate-o, padimate-o]
Log Po/w ([1]; octanol/water): 6.6

c1ccc2cc3ccccc3cc2c1 [^14 C-anthracene, anthracene]
Log Po/w ([1]; octanol/water): 4.5

CC(=O)O[C@H]1C(=O)[C@@]2(C)[C@H]([C@H](OC(=O)c3ccccc3)[C@]3(O)C[C@H](OC(=O)[C@H](O)[C@@H](NC(=O)c4ccccc4)c4ccccc4)C(C)=C1C3(C)C)[C@]1(OC(C)=O)CO[C@@H]1C[C@@H]2O [paclitaxel]
systemic toxicities [2]: cardiac toxicity and neurotoxicity | systemic toxicities ([2]; listed as Taxol): high systemic toxicities

CCCCCC(=O)OCCOCn1cnc2c(=O)[nH]c(N)nc21 [hexanoyl acyclovir]
Log Po/w ([1]; pH 7.4): 0.93 | Octanol/water partition coefficient Po/w ([1]; pH 7.4): 8.58

CC(CN1c2ccccc2Sc2ccccc21)N(C)C (stereo not drawn) [promethazine]
Log Po/w ([1]; in octanol/pH 7.4 isotonic phosphate buffer at 37° C.): 3.10

O=C(O)c1cn(C2CC2)c2cc(N3CCNCC3)c(F)cc2c1=O [Ciprofloxacin]
E. coli titer (E. coli; 0.05 mg/mL): 0 colonies/ml | E. coli titer (E. coli; 0.1 mg/mL): 0 colonies/ml | E. coli titer (E. coli; 0.6 mg/mL): 0 colonies/ml

CCCCC(=O)OCCOCn1cnc2c(=O)[nH]c(N)nc21 [valeryl acyclovir]
Log Po/w ([1]; pH 7.4): 0.30 | Octanol/water partition coefficient Po/w ([1]; pH 7.4): 2.01

CCCCNc1ccc(C(=O)OCCN(C)C)cc1 [tetracaine]
Log Po/w ([1]; octanol/water): 1.90
